Data as given in PMC9982066, “Inhibition of Ehrlichia chaffeensis infection by cell-permeable macrocyclic peptides that bind type IV secretion effector Etf-1” (PNAS Nexus, 2023).
Starred links: 1 amine or outer side, 2 acyl side, 3 side chain; linkers in the order of their positions; H or OH if unused. Positions of bridges follow the written chain, without caps; N, C: chain ends. Non-standard residues stand in square brackets, D forms with d. Residues, ends and D or L forms follow the SMILES beside them. *: point of attachment. 5FAM = O=C1OC2(c3ccc(O)cc3Oc3cc(O)ccc32)c2ccc(C(=O)*)cc21; Trimesoyl = O=C(c1cc(C(=O)[*:2])cc(C(=O)[*:3])c1)[*:1]; Phe(4-Cl) = N[C@@H](Cc1ccc(Cl)cc1)C(=O)O; Phe(4-F) = N[C@@H](Cc1ccc(F)cc1)C(=O)O; d2Nal = N[C@H](Cc1ccc2ccccc2c1)C(=O)O; βAsp = O=C(O)[C@H](CC(=O)[*:2])N[*:1]; Phg = N[C@H](C(=O)O)c1ccccc1; Dap = NC[C@H](N)C(=O)O; βAla = NCCC(=O)O

Key:
BECN1 binding to Etf-1 = assay: streptavidin magnetic beads pull-down of BECN1 with biotin-Etf-1, Western blot; type: biochemical; conditions: 10 µM peptide; for BECN1/Etf-1 Ratio: band intensities, DMSO control set as 1, Fig. 8B
Description: Fig. 8.
Streptavidin magnetic beads (15 µL, Pierce, Rockford, IL, USA) were washed with 1 mL of Bind/Wash buffer (25 mM Tris, pH 7.4; 250 mM NaCl, 0.1% Tween 20), and incubated with 0.15 µg ([…] final concentration) of biotinylated full-length Etf-1 protein in bind/wash buffer at 4°C overnight with end-to-end rotation. Beads were washed three times with Bind/Wash buffer, then incubated with Etf-1-binding macrocyclic peptides (10 µM) or DMSO control in Bind/Wash buffer at room temperature for 2 h. […] Beads were washed three times, and proteins were eluted from the beads with 50 µL of 2× SDS-sample buffer. […] Reacting bands were visualized with enhanced chemiluminescence by incubating the membrane with LumiGLO chemiluminescent reagent (Thermo Fisher Scientific). Images were captured by Amersham Imager 680 (GE Healthcare) and densitometry analysis was performed using ImagQuaNT (GE Healthcare). In each specimen, band intensities were normalized against those of actin as the loading control, and the ratios of the treatment group to the control group were calculated with the value in the control groups arbitrarily set as 1.0.

THP-1 cells = assay: CellTiter-Glo luminescent cell viability assay; conditions: 2-day treatment; for cell viability: 20 μM
Text: THP-1 (human promyelocytic leukemia) cells are widely used as E. chaffeensis infection studies of human monocytes in vitro, since initial characterization of infection ([31]).
Fig. 4. Cytotoxicity and proteolytic stability of Etf-1-binding peptides. (A) Effect of Etf-1-binding peptides on the viability of THP-1 cells as determined by CellTiter-Glo luminescent assay. Relative luminescence was plotted as function of the peptide concentration, with the cell viability of DMSO control group set as 100%. (B) Plot of the amount of intact peptide remaining as a function of the incubation time in 25% human serum. All values are normalized to that of peptide at time 0 (100%).
Cytotoxicity of Etf-1-binding peptides was examined by CellTiter-Glo luminescent cell viability assay (Promega, Madison, WI, USA). THP-1 cells were seeded in a transparent 96-well plate at a density of 5 × 10^3 cells/well (100 μL in each well) in RPMI-1640 containing 10% FBS and 1% antibiotics and cultured overnight. Etf-1-binding peptides were serially diluted in DPBS from a DMSO stock and added to the cells with the final concentration of 0–25 μM and a constant final concentration of 0.5% DMSO (v/v). After incubation at 37°C with 5% CO2 for 46 h, the plate was removed and pre-equilibrated to RT before the addition of 100 μL of the CellTiter-Glo 2.0 reagent to each well. The plate was incubated for 15 min on a rotary shaker in the dark, and the luminescence was detected (1-s integration time) on a Tecan Infinite M1000 Pro microplate reader. Relative luminescence was plotted as function of the peptide concentration, with the cell viability of DMSO control group set as 100%.

E. chaffeensis [1] = assay: E. chaffeensis infection of THP-1 cells, qPCR of 16S rRNA gene normalized to human actin; type: cell-based, Ehrlichia chaffeensis; conditions: 10 μM, 2 days, vs DMSO control
Description: Therefore, we investigated whether these Etf-1-binding peptides can prevent the proliferation of E. chaffeensis inside host cells. THP-1 cells were infected with E. chaffeensis, then treated with the peptides at 30 min post infection (pi) for 2 days. Intracellular infection and proliferation of E. chaffeensis inside host THP-1 cells were assessed using quantitative PCR (qPCR) analysis based on E. chaffeensis 16S rRNA gene normalized by human actin (ACT) gene.
Fig. 5. Effects of Etf-1-binding peptides on E. chaffeensis infection of THP-1 cells. Ehrlichia chaffeensis-infected THP-1 cells at […] were incubated with 10 μM of Etf-1-binding macrocyclic peptide or DMSO control for 2 days.
No antibiotic was used throughout the study.
DNA was extracted from each sample using Qiagen blood mini kit according to the manufacturer's instructions (Qiagen, Valencia, CA, USA), and qPCR analysis was performed in an MX3000P qPCR instrument (Stratagene, San Diego, CA, USA) using SYBR Green Real-Time PCR Master Mix (Thermo Fisher Scientific) according to the manufacturer's instructions. Five-fold serial dilutions of the control group were used to generate a standard curve to calculate the relative copy numbers of E. chaffeensis 16S rRNA normalized against human actin genes using the MX3000P software from Stratagene as described previously ([18], [44]).

[2] = LDH release assay (plasma membrane damage); type: cell-based; conditions: Fig. S2
Description: LDH release assay (Promega) was performed to assess the level of plasma membrane damage in a cell population by these compounds. […] Control wells contained 10 μL of lysis buffer, cell-free complete growth media, or positive LDH control. Following incubation at 37°C and 5% CO2 for 45 to 75 min, the culture was centrifuged and 50 μL of the growth medium was withdrawn from each well, transferred to a clear 96-well plate, mixed with 50 μL of LDH substrate mixture, and incubated at RT for 30 min with gentle mixing. Finally, 50 μL of 1 N HCl was added to each well, and the absorbances at 490 and 680 nm were immediately measured on a Tecan Infinite M1000 plate reader. Relative membrane leakage was calculated and plotted using GraphPad Prism v8.0.

E. chaffeensis [3] = assay: morphological examination of E. chaffeensis infection of THP-1 cells by Diff-Quik staining; conditions: for E. chaffeensis infection (numbers and sizes of morulae): THP-1 cells, Fig. S4 (with Figs. 5, S3)
Description: Ehrlichia chaffeensis Arkansas strain ([43]) was cultured in THP-1 cells (ATCC, Manassas, VA, USA) in RPMI 1640 medium (Corning, Manassas, VA, USA) supplemented with 8% FBS (Atlanta Biologicals, Flowery Branch, GA, USA) and 4 mM L-glutamine (at 37°C under 5% CO2 in a humidified atmosphere. THP-1 cells were seeded at 1 × 10^5 cells/well (in 1.5-mL RPMI 1640 culture medium with 8% FBS, 4 mM L-Gln) in a 12-well plate, then infected with host cell-free E. chaffeensis at an MOI (multiplicity of infection, or numbers of bacteria per cell) of ∼30. Cells were cultured in a humidified incubator with 5% CO2 and 95% air. No antibiotic was used throughout the study. At 0.5 h post infection (pi), cells were incubated with 1–10 μM of peptides or with an equal volume of DMSO (solvent control, 2 μL per mL medium). At 2 days pi, cells were washed with 1 mL of PBS, and two drops of cells were cytospun onto glass slides by a Shandon Cytospin 4 cytocentrifuge (Thermo Fisher Scientific), then fixed and stained with HEMA 3 staining solutions (Thermo Fisher Scientific). Ehrlichia infection was observed and images were captured by a SPOT RT digital camera (Diagnostic Instruments, Sterling Heights, MI, USA) coupled to a Nikon Eclipse E400 microscope (Nikon, Melville, NY, USA).

Etf-1 = Etf-1 (Ehrlichia chaffeensis, UniProt Q2GG12); assay: biochemical; type: binding; conditions: unlabeled competitor peptides vs FAM-B7-133-8
Sequence of Etf-1 (Q2GG12 entry or part of it): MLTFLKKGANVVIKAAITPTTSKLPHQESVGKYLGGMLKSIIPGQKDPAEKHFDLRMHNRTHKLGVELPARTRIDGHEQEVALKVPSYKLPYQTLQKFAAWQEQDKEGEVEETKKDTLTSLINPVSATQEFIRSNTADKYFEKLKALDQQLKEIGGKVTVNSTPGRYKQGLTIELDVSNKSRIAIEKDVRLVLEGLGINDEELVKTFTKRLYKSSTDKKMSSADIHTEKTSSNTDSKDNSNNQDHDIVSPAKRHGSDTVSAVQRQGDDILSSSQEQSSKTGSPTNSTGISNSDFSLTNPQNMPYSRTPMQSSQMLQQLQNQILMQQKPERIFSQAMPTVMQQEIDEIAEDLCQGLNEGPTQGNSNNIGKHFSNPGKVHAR
Description: Fig. 2. Determination of binding affinity of Etf-1-binding peptides by FP assay. […] FAM-labeled peptide (50 nM) was incubated with serially diluted Etf-1 (starting from 25–30 μM in PBS, pH 7.4, supplemented with 5 mM DTT and 0.01% Triton X-100) for 1 h at RT. FP values were measured on a Tecan Infinite M1000 Pro plate reader. Titration curves (n ≥ 3) were fitted using GraphPad Prism and analyzed with TraceDrawer to calculate dissociation constants (KD). […] Data were analyzed using GraphPad Prism and fitted to a four-parameter variable slope equation to determine IC50 values.
Serial dilutions of competitor peptide (0-20 μM) were prepared from DMSO stock solutions into PBS containing 0.01% Triton-X100 and 2 mM TCEP and added to aliquots of the equilibrated Etf-1/probe solution. After incubation for 1 h in the dark and with gentle mixing, 20 μL of each sample was transferred into 384-well black-on-black microplates and FP was measured using a TECAN Infinite M1000 plate reader. Data were analyzed using GraphPad PRISM ver. 8.0 and fit to a four-parameter variable slope equation to determine IC50 values. IC50 values reported are the mean ± SD of n = 2–4 independent experiments.

Compound	disruption of BECN1 binding to Etf-1 (BECN1 binding to Etf-1; compared to DMSO control)	BECN1/Etf-1 Ratio (BECN1 binding to Etf-1)	cell viability (THP-1 cells)	inhibition of E. chaffeensis infection (E. chaffeensis [1])	release of lactate dehydrogenase (LDH) [2]	E. chaffeensis infection (numbers and sizes of morulae) (E. chaffeensis [3])	cytotoxicity (cell lysis in treated groups) (E. chaffeensis [3]; THP-1 host cells)	competition for Etf-1 binding (Etf-1)	cytotoxicity (THP-1 cells; up to 10 μM)
CC(C)C[C@H]1NC(=O)[C@H](C)NC(=O)[C@H](CC(=O)O)NC(=O)[C@@H](Cc2ccc3ccccc3c2)NC(=O)[C@H]2CCCN2C(=O)[C@H](Cc2c[nH]cn2)NC(=O)[C@H](Cc2ccc(O)cc2)NC(=O)c2cc3cc(c2)C(=O)NC[C@H](NC1=O)C(=O)N[C@@H](Cc1ccc(Cl)cc1)C(=O)N[C@H](Cc1ccc2ccccc2c1)C(=O)N[C@H](CCCNC(=N)N)C(=O)N[C@@H](CCCNC(=N)N)C(=O)N[C@H](CCCNC(=N)N)C(=O)N[C@@H](CCCNC(=N)N)C(=O)N[C@H](C(N)=O)CNC3=O [Peptide B7-131-5, TMA-Tyr-His-pro-nal-Asp-Ala-leu-Dap-4-ClPhe-nal-arg-Arg-arg-Arg-Dap] (YH[dP][d2Nal]DA[dL][Dap][Phe(4-Cl)][d2Nal][dR]R[dR]R[Dap]-NH2; linker N-8-15 via Trimesoyl)	disrupted BECN1 binding to Etf-1	0.23	greater loss of cell viability	significantly inhibited	significant release of lactate dehydrogenase	significantly inhibited	certain degrees of cytotoxicity	Competition for Etf-1 binding was observed	
CC(C)C[C@H]1NC(=O)C[C@@H](C(=O)O)NC(=O)[C@@H](Cc2ccc(O)cc2)NC(=O)[C@H](c2ccccc2)NC(=O)[C@H](CC(=O)O)NC(=O)[C@H](Cc2ccc(F)cc2)NC(=O)[C@H](Cc2ccc(O)cc2)NC(=O)c2cc3cc(c2)C(=O)NC[C@H](NC1=O)C(=O)N[C@@H](Cc1ccc(Cl)cc1)C(=O)N[C@H](Cc1ccc2ccccc2c1)C(=O)N[C@H](CCCNC(=N)N)C(=O)N[C@@H](CCCNC(=N)N)C(=O)N[C@H](CCCNC(=N)N)C(=O)N[C@@H](CCCNC(=N)N)C(=O)N[C@H](C(=O)NCCC(=O)NCCC(=O)N[C@@H](CCCCNC(=O)c1ccc2c(c1)C(=O)OC21c2ccc(O)cc2Oc2cc(O)ccc21)C(N)=O)CNC3=O [Peptide B7-131-4, TMA-Tyr-Fpa-Asp-Phg-tyr-isoAsp-leu-Dap-4-ClPhe-nal-arg-Arg-arg-Arg-Dap] (Y[Phe(4-F)]D[Phg][dY][βAsp][dL][Dap][Phe(4-Cl)][d2Nal][dR]R[dR]R[Dap][βAla][βAla]K(5FAM)-NH2; linker N-8-15 via Trimesoyl)		0.91	slightly reduced the cell viability			only slightly reduced		Competition for Etf-1 binding was observed	no cytotoxicity
